Experimental findings from ChEMBL document CHEMBL1201862, “PubChem BioAssay data set” (2004) are described below.

Holding throughout (assay): inhibition of tumour cell growth, NCI panel, 48 h
Assay [1] concerns SK-OV-3.
The test system of assay [2] is SK-MEL-5.
The subject of assay [3] is HCT-116.
Assay [4] relates to T47D.
Assay [5] concerns HCC 2998.
Assay [6] relates to LOX IMVI.
Assay [7] concerns NCI/ADR-RES.
Assay [8] has as its system MDA-MB-435.
Assay [9] relates to NCI-H460.
The test system of assay [10] is SNB-19.
The subject of assay [11] is SF-268.
The test system of assay [12] is RPMI-8226.
For assay [13], the system named is HOP-62.
The test system of assay [14] is NCI-H522.
For assay [15], the system named is HT-29.
For assay [16], the system named is SK-MEL-2.
Assay [17] concerns HCT-15.
For assay [18], the system named is U-251.
Assay [19] concerns UO-31.
Assay [20] relates to TK-10.

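Cells were grown in 96-well plates and exposed to each compound for 48 hours at five concentrations; endpoints were interpolated linearly between bracketing concentrations, or set to the highest concentration if not reached. The concentration for 50% growth inhibition is given as GI50.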 Calls of active or inactive are those of the source. Cut-off read from the data, not from the text of the source: active = GI50 up to about 1.1 µM and inactive = higher.

For the molecule `COc1ccc(-n2sc3ncc(C)cc3c2=O)cc1`, the GI50 was 39.8 µM (inactive) in assay [1]; 13.2 µM (inactive) in [2]; 18.3 µM (inactive) in [3]; 17.5 µM (inactive) in assay [4]; 62.2 µM (inactive) in [5]; > 10 µM (inactive) in assay [6]. The GI50 in [7] was 26.5 µM (inactive); in assay [8], 18.8 µM (inactive); in assay [9], 86.3 µM (inactive); in assay [10] it was > 100 µM (inactive); in [11], 20.9 µM (inactive); in assay [12] it was 26.2 µM (inactive). Also, the GI50 is 18.2 µM (inactive) in [13]; 20.6 µM (inactive) in assay [14]; 17.4 µM (inactive) in [15]; 21.8 µM (inactive) in assay [16]; 18.4 µM in assay [17]; 22.4 µM (inactive) in assay [18]. In addition, the GI50 was 17.6 µM (inactive) in assay [19] and 19.1 µM (inactive) in [20].
`O=C(CCc1ccc(O)c(O)c1)NCCc1cc(O)cc(O)c1`: the GI50 is > 100 µM (inactive) in [1]; > 100 µM (inactive) in [2]; > 100 µM (inactive) in [3]; > 100 µM (inactive) in [4]; > 100 µM (inactive) in assay [5]; 46 µM (inactive) in assay [6]. The GI50 is > 100 µM (inactive) in [7]; 24.8 µM (inactive) in assay [8]; > 100 µM (inactive) in [9]; > 100 µM (inactive) in [10]; > 100 µM (inactive) in assay [11]; > 100 µM (inactive) in assay [12]. Further, the GI50 in assay [13] was > 100 µM (inactive); in [14], 71 µM (inactive); in assay [15], > 100 µM (inactive); in assay [16], > 100 µM (inactive); in [17] it was > 100 µM; in assay [18], > 100 µM (inactive). The GI50 in assay [19] is 63.5 µM (inactive); in [20], > 100 µM (inactive).
Consider `O=C1/C(=C/c2ccccc2)CN(C(=O)/C=C/c2ccccc2)C/C1=C\c1ccccc1`, for which the GI50 in [1] is 27.7 µM (inactive); in assay [2], 8.38 µM (inactive); in assay [3], 0.764 µM (active); in assay [4], 4.43 µM (inactive); in assay [5], 3.55 µM (inactive); in assay [6] it was 2.55 µM (inactive). Further, the GI50 in assay [7] is 1.86 µM (inactive); in assay [8] it was 1.93 µM (inactive); in assay [9] it was 11.5 µM (inactive); in assay [10], 8.15 µM (inactive); in assay [11], 11.2 µM (inactive); in assay [12], 1.07 µM (active). Also, the GI50 in assay [13] is 23.7 µM (inactive); in assay [14] it was 8.99 µM (inactive); in assay [15] it was 3.07 µM (inactive); in assay [16] it was 21.4 µM (inactive); in assay [17] it was 6.17 µM; in [18], 3.59 µM (inactive). The GI50 was 12.4 µM (inactive) in [19] and 16.1 µM (inactive) in [20].
As to `O=[N+]([O-])c1cccc2nc3ccccc3c(NCCc3cccc[n+]3[O-])c12`, the GI50 in assay [1] is 0.153 µM (active); in assay [2] it was < 0.01 µM (active); in [3], < 0.01 µM (active); in assay [4], < 0.0378 µM (active); in assay [5], < 0.01 µM (active); in assay [6], 0.0299 µM (active). The GI50 in assay [7] is 0.608 µM (active); in [8], < 0.0116 µM (active); in assay [9] it was < 0.0141 µM (active); in assay [10], 0.128 µM (active); in assay [11] it was < 0.0476 µM (active); in [12], 0.0123 µM (active). In addition, the GI50 in assay [13] was < 0.0177 µM (active); in assay [14] it was 0.0187 µM (active); in assay [15] it was 0.0103 µM (active); in [16], 0.0619 µM (active); in assay [17], < 0.0138 µM; in assay [18], < 0.038 µM (active). For the same molecule, the GI50 in assay [19] is < 0.0193 µM (active); in [20], < 0.0486 µM (active).
As for `Clc1ccc(Nc2nn3c(CCCCCCCCc4nnc5sc(Nc6ccc(Cl)cc6)nn45)nnc3s2)cc1`, the GI50 in [1], in assay [2], in [3], in assay [4], in [5] and in assay [6] was > 100 µM (inactive) throughout. Moreover, the GI50 in [7] is > 100 µM (inactive); in assay [8], > 100 µM (inactive); in assay [9] it was > 100 µM (inactive); in assay [10], 25.1 µM (inactive); in assay [11] it was > 100 µM (inactive); in assay [12] it was > 100 µM (inactive). Moreover, the GI50 was 38.3 µM (inactive) in assay [13]; > 100 µM (inactive) in [14]; 49.3 µM (inactive) in [15]; > 100 µM (inactive) in [16]; > 100 µM in assay [17]; 37 µM (inactive) in [18]. The GI50 in assay [19] is > 100 µM (inactive); in [20] it was 29.4 µM (inactive).
On to `O=C(O)COc1cc(-c2ccccc2)nc2ccc(F)cc12`, for which the GI50 is > 100 µM (inactive) in assay [1]; > 100 µM (inactive) in assay [2]; > 100 µM (inactive) in assay [3]; > 100 µM (inactive) in assay [4]; 98.6 µM (inactive) in [5]; > 100 µM (inactive) in [6]. In addition, the GI50 in assay [7], in [8], in assay [9], in assay [10], in [11] and in [12] was > 100 µM (inactive) each time. For the same molecule, the GI50 in assay [13] is > 100 µM (inactive); in [14], 58.1 µM (inactive); in assay [15] it was > 100 µM (inactive); in [16] it was > 100 µM (inactive); in [17], > 100 µM; in [18], > 100 µM (inactive). The GI50 in assay [19] is 70 µM (inactive); in [20], 0.0261 µM (active).
With `CC(=O)NNc1nc(C)c(C(/C=C/c2cccc([N+](=O)[O-])c2)=N/NC(=S)NN)s1`, the GI50 in [1], in assay [2], in assay [3], in [4], in assay [5] and in [6] was > 100 µM (inactive) in each case. Besides, the GI50 in [7], in assay [8], in assay [9], in [10], in assay [11] and in [12] was > 100 µM (inactive) each time. The GI50 in [13] is 91 µM (inactive); in [14], > 100 µM (inactive); in [15], > 100 µM (inactive); in assay [16], > 100 µM (inactive); in assay [17] it was > 100 µM; in assay [18], > 100 µM (inactive). In addition, the GI50 in assay [19] and in assay [20] was > 100 µM (inactive) throughout.
